Results taken from patent US6274715A, “Tricyclic erythromycin derivatives” (priority 1997, dated 2001).

What was measured:
Type in all cases: cell-based
ESCHERICHIA COLI H560 = experiment: In vitro antibacterial activity, MIC, BHI agar dilution; conditions: E. coli H560, unit assumed
[1] = test system: STREPTOCOCCUS BOVIS A-5169; experiment: as above; conditions: S. bovis A-5169, unit assumed
EN[…] ATCC 8043 = experiment: as above; conditions: E. faecium ATCC 8043, unit assumed
Procedure, shortened: (§1)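 Agar dilution in BHI: plates inoculated with 1:100 dilutions of organisms (1:10 for Micrococcus and Streptococcus), incubated 20-24 h at 35-37° C, then inspected for the lowest inhibitory concentration against a drug-free growth control.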

M[…] ATCC 4698 = experiment: as above; conditions: M. luteus ATCC 4698, unit assumed
Procedure, shortened: as §1

STR[…] 508 = experiment: as above; conditions: S. agalactiae CMX 508, unit assumed
Procedure, shortened: as §1

M[…] ATCC 9341 = experiment: as above; conditions: M. luteus ATCC 9341, unit assumed
Procedure, shortened: as §1

[2] = test system: STREPTOCOCCUS PYOGENES PIU 2548; experiment: as above; conditions: S. pyogenes PIU 2548, unit assumed
[3] = test system: STAPHYLOCOCCUS AUREUS A5177; experiment: as above; conditions: S. aureus A5177, unit assumed
[4] = test system: KLEBSIELLA PNEUMONIAE ATCC 8045; experiment: as above; conditions: K. pneumoniae ATCC 8045, unit assumed
[5] = test system: STAPHYLOCOCCUS EPIDERMIDIS 3519; conditions: S. epidermidis 3519; BHI agar; unit assumed
ESCHERICHIA COLI KNK 437 = conditions: E. coli KNK 437; BHI agar; unit assumed
[6] = test system: ACINETOBACTER CALCOACETICUS CMX 669; experiment: In vitro antibacterial activity, MIC, BHI agar dilution; conditions: A. calcoaceticus CMX 669, unit assumed
[7] = test system: STREPTOCOCCUS PYOGENES 930; experiment: as above; conditions: S. pyogenes 930, unit assumed
[8] = test system: PSEUDOMONAS AERUGINOSA 5007; experiment: as above; conditions: P. aeruginosa 5007, unit assumed
[9] = test system: STAPHYLOCOCCUS AUREUS CMX 642A; experiment: as above; conditions: S. aureus CMX 642A, unit assumed
[10] = test system: PSEUDOMONAS AERUGINOSA K799/WT; experiment: as above; conditions: P. aeruginosa K799/WT, unit assumed
[11] = test system: STAPHYLOCOCCUS AUREUS CMX 553; experiment: as above; conditions: S. aureus CMX 553, unit assumed
[12] = test system: PSEUDOMONAS AERUGINOSA BMH10; experiment: as above; conditions: P. aeruginosa BMH10, unit assumed
[13] = test system: STAPHYLOCOCCUS AUREUS 1775; experiment: as above; conditions: S. aureus 1775, unit assumed
[14] = test system: STAPHYLOCOCCUS AUREUS A-5278; experiment: as above; conditions: S. aureus A-5278, unit assumed
CANDIDA ALBICANS CCH 442 = experiment: as above; conditions: C. albicans CCH 442, unit assumed
[15] = test system: PSEUDOMONAS AERUGINOSA DPHD-5263; experiment: as above; conditions: P. aeruginosa DPHD-5263, unit assumed
[16] = test system: STAPHYLOCOCCUS AUREUS NCTC10649M; experiment: as above; conditions: S. aureus NCTC10649M, unit assumed
[17] = test system: STAPHYLOCOCCUS AUREUS ATCC 6538P; experiment: as above; conditions: S. aureus ATCC 6538P, 35-37° C., 20 to 24 hours, unit assumed
ESCHERICHIA COLI DC-2 = experiment: as above; conditions: E. coli DC-2, unit assumed
ESCHERICHIA COLI JUHL = conditions: E. coli JUHL; BHI agar; unit assumed
[18] = test system: PSEUDOMONAS AERUGINOSA K799/61; experiment: In vitro antibacterial activity, MIC, BHI agar dilution; conditions: P. aeruginosa K799/61, unit assumed
[19] = test system: STREPTOCOCCUS PYOGENES EES61; experiment: as above; conditions: S. pyogenes EES61, unit assumed
[20] = test system: PSEUDOMONAS AERUGINOSA DPHD-2862; experiment: as above; conditions: P. aeruginosa DPHD-2862, unit assumed
[21] = test system: PROVIDENCIA STUARTII CMX 640; conditions: P. stuartii CMX 640; BHI agar; unit assumed
PSEUDOMONAS CEPACIA 296I = experiment: In vitro antibacterial activity, MIC, BHI agar dilution; conditions: P. cepacia 296I, unit assumed
ESCHERICHIA COLI SS = experiment: as above; conditions: E. coli SS, unit assumed
[22] = test system: ENTEROBACTER AEROGENES ATCC 13048; experiment: as above; conditions: E. aerogenes ATCC 13048, unit assumed
[23] = test system: MYCOBACTERIUM SMEGMATIS ATCC 114; experiment: as above; conditions: M. smegmatis ATCC 114, unit assumed
H. Influenza Dill AMP R = experiment: In vitro antibacterial activity against H. Influenza Dill AMP R, MIC; conditions: separate assay, unit assumed
Procedure, shortened: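 Agar dilution in Brain Heart Infusion agar, twelve successive compound dilutions, inoculated by Steers replicator with 1:100 (1:10 for slow growers) culture dilutions. Incubation 35-37° C. for 20 to 24 hours; MIC is lowest concentration giving no growth, slight haze or sparse colonies versus drug-free control.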

Measured: MIC

CC[C@H]1OC(=O)[C@H](C)C(=O)[C@H](C)[C@@H](O[C@@H]2O[C@H](C)C[C@H](N(C)C)[C@H]2O)[C@](C)(OC)C[C@@H](C)C2=N[C@H](COCc3cc(C)c4ccccc4n3)CN3C(=O)O[C@@]1(C)[C@H]3[C@H]2C [Example 83]
0.39 µg/mL: M[…] ATCC 4698 | [2] | [5] | [23]
0.02 µg/mL: [1]
0.01 µg/mL: STR[…] 508 | [19]
6.2 µg/mL: [18]
0.05 µg/mL: EN[…] ATCC 8043 | M[…] ATCC 9341
50 µg/mL: PSEUDOMONAS CEPACIA 296I
16 µg/mL: H. Influenza Dill AMP R
0.2 µg/mL: [3] | [9] | [11] | [16] | [17]
1.56 µg/mL: ESCHERICHIA COLI SS
100 µg/mL: [6] | [7]
> 100 µg/mL: all other assays above

CC[C@H]1OC(=O)[C@H](C)C(=O)[C@H](C)[C@@H](O[C@@H]2O[C@H](C)C[C@H](N(C)C)[C@H]2O)[C@](C)(OC)C[C@@H](C)C2=N[C@H](CCOCc3ccccc3)CN3C(=O)O[C@@]1(C)[C@H]3[C@H]2C [Example 92]
6.2 µg/mL: [18]
32 µg/mL: H. Influenza Dill AMP R
0.1 µg/mL: EN[…] ATCC 8043
0.05 µg/mL: [1] | STR[…] 508 | M[…] ATCC 9341 | [19]
0.39 µg/mL: M[…] ATCC 4698 | [2] | [5] | [9] | [11] | [16] | [17]
0.2 µg/mL: [3]
1.56 µg/mL: ESCHERICHIA COLI SS | [23]
100 µg/mL: [7]
> 100 µg/mL: all other assays above
